Assay: Sustained release study (fluorescence intensity vs. time)
Type: physicochemical
Procedure: Step 3: Sustained Release Study
FIGS. 6a and 6b show the sustained release of chloramphenicol (at 1 and 4 molar concentrations, respectively) from the liposomes described above as a function of fluorescence intensity vs. time at a release rate of about 0.65 mg/day.

Molecule	release rate (sustained release from reverse micelles (FIG. 6c))	release rate (sustained release from liposomes, 1 and 4 molar concentrations (FIGS. 6a, 6b))
vitamin E	about 113 mg/day	–
O=C(N[C@H](CO)[C@H](O)c1ccc([N+](=O)[O-])cc1)C(Cl)Cl [chloramphenicol]	–	about 0.65 mg/day

Source: patent US20130004651A1, “SUSTAINED DRUG RELEASE FROM BODY IMPLANTS USING NANOPARTICLE-EMBEDDED POLYMERIC COATING MATERIALS” (priority 2011, published 2013)
